Assay [1] relates to HEK293T cells (HEK293T细胞). It counts as cell-based. The settings on record: RBD mRNA-LNP, mRNA 1 μg, 24 h, cell supernatant.
For assay [2], the system named is human umbilical vein endothelial cells (人脐静脉内皮细胞, HUVEC). As to the kind of experiment: In vitro expression of VEGFa mRNA-LNP, ELISA of VEGFa protein (Example 6). Particulars: mRNA 1 μg, 24 h. It counts as cell-based. (In general: An ELISA detects its analyte on a solid surface through an enzyme-linked reagent.)
Assay [3] relates to female BALB/C mice (雌性BALB/C小鼠). As to the kind of experiment: In vivo expression of Fluc mRNA-LNP, live fluorescence imaging (Example 7). Further details: species or system mouse. Particulars: for fluorescence intensity (total luminous flux) / course of fluorescence intensity at 24 h (in words): mice, 20 μg Fluc mRNA, intramuscular; for fluorescence intensity (total luminous flux): 6 h, order of magnitude; for fluorescence intensity of expressed protein compared with U-102, U-104, U-106, U-108, U-110, U-112 (in words): mRNA-LNP, versus U-102, U-104, U-106, U-108, U-110, U-112.

For `CCCCCCCCC(CCCCCC)C(=O)OCCCCCCN(CCCCO)CCCCCCOC(=O)C(CCCCCC)CCCCCCCC` (stereo not shown) [ALC-0315, ((4-羟基丁基)氮杂二基)双(己烷-6,1-二基)双(2-己基癸酸酯), reference compound], in assay [1], the RBD protein concentration came out at 8.5 ng/mL. The VEGFa protein concentration in assay [2] is listed as 7.9 ng/mL. In assay [3], the “fluorescence intensity (total luminous flux)” value is given as ~10^7 p/s and the “course of fluorescence intensity at 24 h (in words)” value is “开始减弱”.

In turn, `CCCCCCCCCCCOC(=O)CCCCCN(CCO)CCCCCCCC(=O)OC(CCCCCCCC)CCCCCCCC` [SM-102, 8-[(2-羟乙基)[6-氧代-6-(十一烷基氧基)己基]氨基]辛酸1-辛基壬基酯, reference compound] gave an RBD protein concentration in assay [1] of 10.2 ng/mL. Further, the VEGFa protein concentration in assay [2] came out at 11.3 ng/mL. Further, in assay [3], the “fluorescence intensity (total luminous flux)” value is on record as ~10^7 p/s and the “course of fluorescence intensity at 24 h (in words)” value was “开始减弱”.

`CCCCCCCCC(CCCCCC)COC(=O)CCCCCN(CCCCCC(=O)OCC(CCCCCC)CCCCCCCC)CCCN(CCO)CCO` (stereo not shown) [U-101, 双(2-己基癸基)-6,6'-((3-(双(2-羟乙基)氨基)丙基)氮杂二烷基)二己酸酯] had an RBD protein concentration in assay [1] of 50.6 ng/mL. The VEGFa protein concentration in assay [2] amounted to 52.8 ng/mL. For the same molecule, in assay [3], the “fluorescence intensity of expressed protein compared with U-102, U-104, U-106, U-108, U-110, U-112 (in words)” value is “更高一些”.

`CCCCCCCCC(CCCCCC)COC(=O)CCCCCCN(CCCCCCC(=O)OCC(CCCCCC)CCCCCCCC)CCN(CCO)CCO` (stereo not shown) [U-102, 双(2-己基癸基)-7,7'-((2-(双(2-羟乙基)氨基)乙基)氮杂二烷基)二庚酸酯] came in with an RBD protein concentration in assay [1] of 49.3 ng/mL. In addition, in assay [2], the VEGFa protein concentration amounted to 48.7 ng/mL.

Regarding `CCCCCCCCCCCCOC(=O)CCCCCN(CCCCCC(=O)OCC(CCCCCC)CCCCCCCC)CCCN(CCO)CCO` (stereo not shown) [U-103, O-2-己基癸基-O’-十二烷基-6,6'-((3-(双(2-羟乙基)氨基)丙基)氮杂二烷基)二己酸酯], in assay [1], the RBD protein concentration stood at 49.6 ng/mL. In assay [2], this molecule came in with a VEGFa protein concentration of 49.6 ng/mL. Also, the “fluorescence intensity of expressed protein compared with U-102, U-104, U-106, U-108, U-110, U-112 (in words)” value in assay [3] is listed as “更高一些”.

Turning to `CCCCCCCCCCCCOC(=O)CCCCCCN(CCCCCCC(=O)OCC(CCCCCC)CCCCCCCC)CCN(CCO)CCO` (stereo not shown) [U-104, O-2-己基癸基-O’-十二烷基-6,6'-((2-(双(2-羟乙基)氨基)乙基)氮杂二烷基)二庚酸酯], in assay [1], the RBD protein concentration is on record as 48.7 ng/mL. In addition, the VEGFa protein concentration in assay [2] is 47.9 ng/mL.

`CCCCCCCCC(CCCCCCCC)OC(=O)CCCCCN(CCCCCC(=O)OC(CCCCCCCC)CCCCCCCC)CCCN(CCO)CCO` [U-105, 双(1-辛基壬基)-6,6'-((3-(双(2-羟乙基)氨基)丙基)氮杂二烷基)二己酸酯] came in with an RBD protein concentration in assay [1] of 48.4 ng/mL. For the same molecule, the VEGFa protein concentration in assay [2] is 48.3 ng/mL. For the same molecule, in assay [3], the “fluorescence intensity of expressed protein compared with U-102, U-104, U-106, U-108, U-110, U-112 (in words)” value was “更高一些”.

For `CCCCCCCCC(CCCCCCCC)OC(=O)CCCCCCN(CCCCCCC(=O)OC(CCCCCCCC)CCCCCCCC)CCN(CCO)CCO` [U-106, 双(1-辛基壬基)-7,7'-((2-(双(2-羟乙基)氨基)乙基)氮杂二烷基)二庚酸酯], the RBD protein concentration in assay [1] was found to be 47.8 ng/mL. In assay [2], this molecule came in with a VEGFa protein concentration of 45.5 ng/mL.

Take `CCCCCCCCCCCCOC(=O)CCCCCN(CCCCCC(=O)OC(CCCCCCCC)CCCCCCCC)CCCN(CCO)CCO` [U-107, O-1-辛基壬基-O’-十二烷基-6,6'-((3-(双(2-羟乙基)氨基)丙基)氮杂二烷基)二己酸酯]: in assay [1], the RBD protein concentration is on record as 47.6 ng/mL. The same molecule returned a VEGFa protein concentration in assay [2] of 47.7 ng/mL. Further, the “fluorescence intensity of expressed protein compared with U-102, U-104, U-106, U-108, U-110, U-112 (in words)” value in assay [3] is given as “更高一些”.

`CCCCCCCCCCCCOC(=O)CCCCCCN(CCCCCCC(=O)OC(CCCCCCCC)CCCCCCCC)CCN(CCO)CCO` [U-108, O-1-辛基壬基-O’-十二烷基-7,7'-((2-(双(2-羟乙基)氨基)乙基)氮杂二烷基)二庚酸酯] yielded an RBD protein concentration in assay [1] of 45.7 ng/mL. Moreover, the VEGFa protein concentration in assay [2] is reported as 45.3 ng/mL.

As for `CCCCCCCC(CCCCCCC)OC(=O)CCCCCN(CCCCCC(=O)OC(CCCCCCC)CCCCCCC)CCCN(CCO)CCO` [U-109, 双(1-庚基辛基)-6,6'-((3-(双(2-羟乙基)氨基)丙基)氮杂二烷基)二己酸酯], the RBD protein concentration in assay [1] is on record as 43.2 ng/mL. In assay [2], this molecule yielded a VEGFa protein concentration of 39.2 ng/mL. Besides, in assay [3], the “fluorescence intensity of expressed protein compared with U-102, U-104, U-106, U-108, U-110, U-112 (in words)” value is “更高一些”.

The molecule `CCCCCCCC(CCCCCCC)OC(=O)CCCCCCN(CCCCCCC(=O)OC(CCCCCCC)CCCCCCC)CCN(CCO)CCO` [U-110, 双(1-庚基辛基)-7,7'-((2-(双(2-羟乙基)氨基)乙基)氮杂二烷基)二庚酸酯] showed an RBD protein concentration in assay [1] of 41.6 ng/mL. Further, the VEGFa protein concentration in assay [2] came to 36.8 ng/mL.

`CCCCCCCCCCCCOC(=O)CCCCCN(CCCCCC(=O)OC(CCCCCCC)CCCCCCC)CCCN(CCO)CCO` [U-111, O-1-庚基辛基-O’-十二烷基-6,6'-((3-(双(2-羟乙基)氨基)丙基)氮杂二烷基)二己酸酯]: the RBD protein concentration in assay [1] is reported as 44.3 ng/mL. This molecule also had a VEGFa protein concentration in assay [2] of 41.7 ng/mL. In addition, in assay [3], the “fluorescence intensity of expressed protein compared with U-102, U-104, U-106, U-108, U-110, U-112 (in words)” value is recorded as “更高一些”.

In turn, `CCCCCCCCCCCCOC(=O)CCCCCCN(CCCCCCC(=O)OC(CCCCCCC)CCCCCCC)CCN(CCO)CCO` [U-112, O-1-庚基辛基-O’-十二烷基-7,7'-((2-(双(2-羟乙基)氨基)乙基)氮杂二烷基)二庚酸酯] came in with an RBD protein concentration in assay [1] of 42.8 ng/mL. Further, the VEGFa protein concentration in assay [2] is reported as 36.1 ng/mL.

For `CCCCCCCCC(CCCCCC)COC(=O)CCCCCN(CCCCCC(=O)OCC(CCCCCC)CCCCCCCC)CCN(CCO)CCO` (stereo not shown) [UR-301, 双(2-己基癸基)-6,6'-((2-(双(2-羟乙基)氨基)乙基)氮杂二烷基)二己酸酯], the RBD protein concentration in assay [1] amounted to 6.8 ng/mL. The VEGFa protein concentration in assay [2] stood at 4.8 ng/mL.

As for `CCCCCCCCC(CCCCCC)COC(=O)CCCCCCN(CCCCCCC(=O)OCC(CCCCCC)CCCCCCCC)CCCN(CCO)CCO` (stereo not shown) [UR-302, 双(2-己基癸基)-7,7'-((3-(双(2-羟乙基)氨基)丙基)氮杂二烷基)二庚酸酯], in assay [1], the RBD protein concentration is on record as 4.5 ng/mL. Moreover, the VEGFa protein concentration in assay [2] is reported as 3.7 ng/mL.

The molecule `CCCCCCCCC(CCCCCC)COC(=O)CCCCCCCN(CCCCCCCC(=O)OCC(CCCCCC)CCCCCCCC)CCN(CCO)CCO` (stereo not shown) [UR-303, 双(2-己基癸基)-8,8'-((2-(双(2-羟乙基)氨基)乙基)氮杂二烷基)二辛酸酯] had an RBD protein concentration in assay [1] of 6.4 ng/mL. The same molecule returned a VEGFa protein concentration in assay [2] of 6.2 ng/mL.

With `CCCCCCCCC(CCCCCC)COC(=O)CCCCN(CCCCC(=O)OCC(CCCCCC)CCCCCCCC)CCCN(CCO)CCO` (stereo not shown) [UR-304, 双(2-己基癸基)-5,5'-((3-(双(2-羟乙基)氨基)丙基)氮杂二烷基)二戊酸酯], in assay [1], the RBD protein concentration was 5.4 ng/mL. Further, the VEGFa protein concentration in assay [2] is recorded as 4.9 ng/mL.

The values are drawn from patent CN117003659A, “一种可离子化脂质或其药学上可接受的盐、组合物和应用” (priority 2023, dated 2023).
